Patent publication US12208091B2, “Compounds for treatment of eye diseases associated with excessive vascularisation” (Active Biotech AB, priority 2019, dated 2025)

How the values were obtained:
[1] = test system: bFGF induced corneal vascularisation; test: bFGF induced corneal vascularisation (pellet in corneal pocket), area of neovascularisation; assay type: in vivo, C57BL/6 mice
Procedure: The area of the neovascularisation can be measured using the formula: Area=0.2·VL·CH·π wherein vessel length (VL) and continuous circumferential zone (in clock hours=CH) are measured as defined in FIG. 1. Treatment with Laquinimod of VEGF Induced Corneal Vascularisation
Hydron pellets for induction of vascularisation were prepared from stimulant (bFGF) and binding agent (sucralfate).
47 CR female C57BL/6 mice aged 6 to 8 weeks were prepared for surgery by anesthetising with 90 mg/kg of pentobarbital, ip. Corneal vascularisation was induced by placement of a pellet in a corneal pocket cut in one eye. Signs for ocular irritation or infection were carefully monitored.
Dosages of laquinimod in DI (deionised) water, vehicle (DDW=double distilled water), and avastin (positive control) were applied directly to the eye containing the pellet. Vascularisation was measured on day 6.

[2] = test system: Human retinal microvascular endothelial cells (HRMECs); test: LPS-activated microglia-induced HRMEC tube formation (co-culture); assay type: cell-based; details: 10 μM; normalised to vehicle 0%, sulforaphane 100%
Procedure: The following experimental groups were included in the study: • Group 1: […] Sulforaphane (10 μM, positive control, anti-angiogenic effects) • Group 3: Aflibercept (“Eylea” 40 μg/ml, positive control, partial anti-angiogenic effects) • Group 4: […] Human retinal microvascular endothelial cells (HRMECs) were purchased from Neuromics (Cat #HEC09, Lot #2872) and cultured according to manufacturer's instructions in Endo-Growth media (Cat #EKG001, Lot #EKG0011902269) supplemented with Endothelial Growth Factor (Cat #EKG001, Lot #EGK00125) on AlphaBiocoat coated T25 flasks at 37° C. 5% CO2. […] Human microglia were seeded onto PLL coated cell culture inserts (Sarstedt, Cat #83.3932.040) at 103 000 cells/cm^2. […] The method for co-cultures of microglia and HRMECs was modified from protocol described by Ding et al. 2018 (Ding X, Gu R, Zhang M, Ren H, Shu Q, Xu G, Wu H. Microglia enhanced the angiogenesis, migration and proliferation of co-cultured RMECs. […] PMID: 30223824; PMCID: PMC6142340) and Ji Cho et al. 2019 (Ji Cho M, Yoon […], Park J, Lee J, Park J G, Cho Y L, Hun Kim J, Jang H, Park Y J, Lee S H, Min J K. Oxidative stress-mediated TXNIP loss causes RPE dysfunction. […] PMID: 31615975; PMCID: PMC6802648). Microglia was activated with LPS (100 ng/ml) in microglia complete growth media without FBS with simultaneous treatment of freshly prepared study compounds, Eylea and vehicle for 24 hours. HRMECs were incubated in basal Endo-Growth media for 24 hours before co-culturing. […] Media in microglia inserts containing LPS was replaced to corresponding freshly prepared study compounds, aflibercept and sulforaphane in basal Endo-Growth media. […] 5% CO2, stained with calcein-AM (5 μM) for 30 min and imaged using a fluorescence microscope (Leica Thunder 3D Tissue Imager, Leica Microsystems). Images were analyzed using the AngioTool software (Zudaire E, Gambardella L, Kurcz […] Computational Tool for Quantitative Analysis of Vascular Networks. PLOS ONE 6(11): e27385. https://doi.org/10.1371/journal.pone.0027385) for ImageJ (NIH public domain). Total tube area, tube length, density, lacunarity, and branching index (number of junctions and endpoints) were quantified. Images were analyzed using AngioTool software (NIH, Bethesda, MD; available in the public domain) for the following readouts: average vessels length, total vessels length, vessel area, vessels percentage area, total number of junctions, density of junctions, total number of endpoints, and mean lacunarity. […] Raw data for each of the readouts was plotted and analyzed by ordinary one-way ANOVA with Dunnett's multiple comparisons post-hoc test. […] Effect size data were analyzed by non-parametric Kruskal-Wallis test, with Dunn's multiple comparisons post-hoc test.

[3] = group 5: 50 μg/animal topical bid ×5, measured day 6

For `CCN(C(=O)c1c(O)c2c(Cl)cccc2n(C)c1=O)c1ccccc1` [laquinimod], the “Inhibition of corneal vascularisation induced by bFGF” value (shortened to “Inhibition”) ([1]; 0.5 mg/kg bid, group 4) was 11%, the “Inhibition” value ([1]; 2.5 mg/kg bid, group 5) was 35% and the “Inhibition” value ([1]; 2.5 mg/kg qid, group 7) was 56%. For the same compound, the Area of vasc. [1, 3] was 2.30 ± 0.23, the “Area percent of positive control” value [1, 3] was 65% and the Area of vasc. ([1]; group 7: 50 μg/animal topical qid ×5, measured day 6) was 1.56 ± 0.15. The “Normalized effect size on average vessel length” value [2] was 53%.
